Assay [1] concerns human umbilical cord vein derived vascular endothelial cells (HUVECs). As to the kind of experiment: Apoptosis induction in young and aged HUVECs (AnnexinV/PI/Hoechst 33258, FACS analysis). It is filed as cell-based. The note with it: 48 hours, relative to Con, 2DG 1 mM, 3HB 20 mM, AIC 200 μM. On the procedure: (§1) Specifically, human umbilical cord vein derived vascular endothelial cells (HUVECs, Lonza) were cultured in a prescribed culture medium (EBM-2/EGM-2, Lonza). Less than 10 passages were defined as young and 15 passages or more were defined as aged. For young or aged HUVEC, 2DG, 3HB, and AIC were added to the culture solutions at the concentrations of 1 mM, 20 mM, and 200 μM, respectively, and the cells were harvested after 48 hours. The collected cells were evaluated for viability by fluorescence/absorbance measurements using ApoTox-Glo™ Triplex Assay kit (Promega). Dead cells were stained using AnnexinV (Becton & Dickinson (BD)), PI (Sigma-Aldrich), and Hoechst 33258 (Invitrogen), and the percentage of apoptosis-induced cells was quantified by FACS analysis.
(In general: In flow cytometry, cells or beads pass a laser one at a time.)

Assay [2] has the same test system. As to the kind of experiment: Cell viability of young and aged HUVECs (ApoTox-Glo Triplex Assay). The format is cell-based. The note with it: 48 hours, 2DG 1 mM, 3HB 20 mM, AIC 200 μM; for selectivity of the effects for aged versus young cells: aged (15 passages or more) vs young (less than 10 passages) HUVECs, viability and apoptosis; for cell viability: young and aged HUVECs, relative to Con. On the procedure:
as §1

Assay [3] is described as follows: Metabolome analysis of blood and various tissues of mice after short-term administration of the SGLT2 inhibitor. It is filed as in vivo. An excerpt: It is known that SGLT2 inhibition accelerates fatty acid oxidation and suppresses glycolysis, and that acceleration of glycolysis is observed in senescent cells. Then, whether 3-hydroxybutyrate (hereinafter referred to as “3HB”), AICAR (hereinafter referred to as “AIC”), and 2-deoxyglucose (hereinafter referred to as “2DG”) that has an inhibitory effect on glycolysis have effects to induce apoptosis of senescent cells were examined.

The subject of assay [4] is p16 and p21 mRNA in heart, kidney, skeletal muscle (quadriceps), and brown adipose tissue. Kind of assay: Quantitative RT-PCR of p16 and p21 in organs other than visceral adipose tissue of obesity model mice. As to conditions: SGLT2 inhibitor administration for 7 days. It is filed as in vivo, mice (C57BL/6NCr). On the procedure: (§2) Four-week-old wild-type mice (C57BL/6NCr) were fed with high fat diets for 8 weeks to prepare diet-induced obesity model mice. Then, canagliflozin, an SGLT2 inhibitor, was administered orally to the prepared obesity model mice by mixing with the diet at the concentration of 0.03% w/w (hereinafter referred to as “high fat diet+SGLT2i group”).
(§3) Specifically, RNA was extracted with RNA-Bee™ (Tel-Test) from a portion of the visceral adipose tissue (epididymal adipose tissue) collected from the mice of each group 3 days and 1 week after starting administration of canagliflozin. The collected RNA was quantified by Nanodrop (Thermo), and cDNA was then prepared from 1 μg of the RNA using QuantiTect Reverse Transcription Kit (Quiagen). This cDNA was used to quantify the relative expression of mRNAs of p21 and p16 using Actb as the housekeeping gene by quantitative RT-PCR method using Light Cycler 480 (Roche), and TaqMan Universal Probe Library and the Light Cycler Master (Roche). The primers for each RNA were designed using the Probe finder on the Roche website.
Specifically, mRNA expression levels of p16 and p21 in heart, kidney, skeletal muscle (quadriceps), and brown adipose tissue, which were collected from the same mice when the visceral adipose tissue was collected in Experimental Example 2, were quantified using the same methods described in Experimental Example 4.

The next assay concerns visceral adipose tissue. Kind of assay: Adipose inflammation and oxidative stress in adipose tissue of obesity model mice (HE, DHE, F4/80 staining, CCL2 and TNFα RT-PCR). The format is in vivo, mice (C57BL/6NCr). As to conditions: visceral fat. On the procedure:
as §2
Specifically, a portion of the visceral fat collected in Experimental Example 4 was immersed and fixed with 10% Mildform (Wako) for at least 24 hours. The sample was dehydrated and embedded in paraffin, and sliced into 5-μm thick. The slices were stuck on slides and subjected to hematoxylin-eosin (HE) staining, dihydroethidium (DHE) staining, or immunofluorescent staining with F4/80 antibody. The stained slices were imaged using Biorevo (Keyence Co.), or where necessary, using confocal microscopy. For the HE staining, the images were photographed at 400× magnification, and the mean number of the crown like structures per one 40× field of view was counted as well. For the DHE staining, the percentage (%) of a red color value equal to or greater than a certain value relative to a randomly photographed 400× image per one field of view was measured using ImageJ. For the Immunofluorescent staining with F4/80 antibody, percentage (%) of F4/80 positive cells per nucleus in one field of view was measured. In addition, mRNAs of CCL2 and TNFα were quantified by quantitative RT-PCR method according to the method described in Experimental Example 4.

Assay [5] concerns Hutchinson-Gilford progeria model mice (Zmpste24-deficient mice). Kind of assay: General condition of Hutchinson-Gilford progeria model mice. It is filed as in vivo. The note with it: canagliflozin 0.03% w/w in diet, 3 to 4 weeks, KO+SGLT2i vs KO. An excerpt: Canagliflozin, an SGLT2 inhibitor, mixed in a diet at the concentration of 0.03% w/w was orally administered to 13-week-old Hutchinson-Gilford progeria model mice (Zmpste24-deficient mice), and the general condition of the mice was observed.

The next assay concerns p53 protein. As to the kind of experiment: Western blotting of p53 protein in visceral adipose tissue of obesity model mice. The format is in vivo, mice (C57BL/6NCr). The note with it: canagliflozin 0.03% w/w in diet, one week. On the procedure:
as §2
Specifically, expression level of p53 protein was measured by Western blotting using a portion of the visceral adipose tissues collected in Experimental Example 2. Type 1C12 (CST) was used as the anti-p53 antibody. Anti-β-actin antibody (type 13E5, CST) was used as the antibody to detect β-actin protein, which is the loading control.
Background: Immunoblotting shows a protein as a band on a membrane.

Assay [6] deals with senescent cells in the visceral adipose tissues. As to the kind of experiment: Senescence-associated acidic β-galactosidase staining of visceral adipose tissue of diet-induced obesity model mice. The format is in vivo, mice (C57BL/6NCr). The note with it: canagliflozin 0.03% w/w in diet, one week. As to the method:
as §2
For comparison, four-week-old wild-type mice (C57BL/6NCr) fed with normal diets for 8 weeks (hereinafter referred as “normal diet group”) and obesity model mice prepared in the same manner as described above with the exception of not administering canagliflozin (hereinafter referred to as “high fat diet group”) were prepared.
The visceral adipose tissues (epididymal adipose tissues) were collected from the mice of each group one week after starting administration of canagliflozin in Experimental Example 1.
(§4) Then, the senescent cells in the visceral adipose tissues collected from the mice of each group were detected according to the conventional method (Dimri, G. P. et al., Proc. Natl. Acad. Sci. U.S.A., 92(20), 9363-9367, 1995). Specifically, each of the visceral adipose tissues was stained with senescence-associated acidic β-galactosidase and the senescent cells were detected. The senescent cells were stained blue by this staining.

The test system of assay [7] is p21 (Cdkn1a) and p16 (Cdkn2a) mRNA. As to the kind of experiment: Quantitative RT-PCR of senescence markers p21 (Cdkn1a) and p16 (Cdkn2a) in visceral adipose tissue of obesity model mice. The format is in vivo, mice (C57BL/6NCr). The note with it: canagliflozin 0.03% w/w in diet, 3 days and 1 week, relative to Actb. As to the method:
as §2, §3

The subject of assay [8] is senescent cells in blood vessels. Kind of assay: Senescence-associated β-galactosidase staining of blood vessels of atherosclerotic model mice. The format is in vivo, ApoE-deficient (ApoE−/−) mice. The note with it: ApoE−/− mice on high fat diet 12 weeks, canagliflozin 0.03% w/w in diet, 2 weeks, vs HFD group.
Description: as §4
Four-week-old ApoE-deficient (ApoE^−/−) mice were fed with high fat diets for 12 weeks, followed by oral administration of canagliflozin, an SGLT2 inhibitor, mixed in the diet at the concentration of 0.03% w/w (hereinafter referred to as “HFD+SGLT2i group”). For comparison, the same mice as described above with the exception of not administering canagliflozin (hereinafter referred to as “HFD group”) were prepared. The blood vessels (from the aorta base to the descending aorta on the diaphragm) were collected from the mice of each group 2 weeks after starting administration of canagliflozin. Subsequently, the senescent cells in blood vessels collected from the mice of each group were detected according to the method described in Experimental Example 2. The stainability was measured at a part ranging from the ascending aorta to the branch of the arch left subclavian artery.

Setting [9] is: SGLT2 inhibitor administration for 3 days and 7 days.
Setting [10] is: SGLT2 inhibitor administration for 7 days.

Entries after “also recorded” stand apart in the source; their conditions may differ.

Take `CC(O)CC(=O)O` (stereo not shown) [3HB, 3-hydroxybutyrate]: the “apoptosis induction (percentage of apoptotic cells)” value in [1] is listed as “increase the apoptosis induction”. Besides, in assay [2], the “selectivity of the effects for aged versus young cells” value (“selectivity of the effects” below) is recorded as “in an aged cell-selective manner” and the cell viability result is given as “decrease of the cell viability”.

Turning to `NC(=O)c1ncn([C@@H]2O[C@H](CO)[C@@H](O)[C@H]2O)c1N` [AIC, 5-Aminoimidazole-4-carboxamide-1-β-D-ribofuranoside], in assay [1], the “apoptosis induction (percentage of apoptotic cells)” value is given as “increased apoptosis induction”. In addition, in [2], the “selectivity of the effects” value was “not in an aged cell-selective manner; also recorded: more potent effects in the young cells” and the cell viability result is given as “decreased cell viability”.

Consider `Cc1ccc([C@@H]2O[C@H](CO)[C@@H](O)[C@H](O)[C@H]2O)cc1Cc1ccc(-c2ccc(F)cc2)s1` [canagliflozin, (1S)-1,5-Anhydro-1-C(-3{[5-(4-fluorophenyl)thiophen-2-yl]methyl}-4-methylphenyl)-D-glucitol], for which, in assay [3], the AICAR in blood result is listed as “significant increase of AICAR”; the “ketone body concentration in blood and each tissue” value was “increase of ketone body concentration in blood and each tissue”. In assay [4], the “mRNA levels of p16 in the brown adipose tissue” value was “tended to decrease”, the “mRNA levels of p16 in the kidney” value is listed as “tended to decrease”, the “mRNA levels of p21 in the heart” value was “tended to decrease” and the “mRNA levels of p21 in the kidney” value is on record as “tended to decrease”. Besides, in assay [4], the “mRNA levels of p21 in the skeletal muscle” value is “tended to decrease”. Moreover, in the assay on visceral adipose tissue (setting [9]), the “mRNA expression of CCL2” value is recorded as “tended to decrease”, the “mRNA expression of TNFα” value was “tended to decrease” and the “macrophage infiltration into adipose tissue (immunofluorescent staining with F4/80)” value is listed as “macrophage infiltration into adipose tissue remained”. Moreover, in the assay on visceral adipose tissue (setting [10]), the “infiltration of macrophages and CLS structures (HE staining, number of CLS)” value is “significantly decreased”; the “oxidative stress (DHE staining, DHE positive area)” value is on record as “significantly suppressed”. Also, the “deterioration of hair consistency and alopecia” value in assay [5] is listed as “reduced”. Besides, in the assay on p53 protein, the “expression level of p53 in the visceral adipose tissue (Western blotting)” value is “significantly lowered”. Besides, in assay [6] (high fat diet+SGLT2i group mice), the “inflammation at the visceral fat” value is “alleviation of inflammation at the visceral fat was also observed”. Besides, the “senescent cells in the visceral adipose tissue (senescence-associated acidic β-galactosidase staining)” value in [6] (obesity model mice, oral, vs high fat diet group) is on record as “significantly decreased the senescent cells in the visceral adipose tissue”. In assay [7], the “p16 mRNA levels in visceral adipose tissue” value was “a similar trend was observed for p16” and the “p21 mRNA levels in visceral adipose tissue” value is listed as “significantly suppressed the increase of p21 mRNA levels”. Besides, the “senescent cells in blood vessels (senescence-related β-galactosidase stainability)” value in [8] is recorded as “decreased the senescent cells stained blue”.

On to `O=CC[C@@H](O)[C@H](O)[C@H](O)CO` [2DG, 2-deoxyglucose], for which, in assay [1], the “apoptosis induction (percentage of apoptotic cells)” value is “increase the apoptosis induction”. Further, in assay [2], the “selectivity of the effects” value is “in an aged cell-selective manner” and the cell viability result is listed as “decrease of the cell viability”.

Source of the values: US11813244B2, “Agent for eliminating senescent cells” (NIIGATA UNIVERSITY, priority 2016, dated 2023).
